Test results published in patent US5721107A, “Antibodies to G protein coupled glutamate receptors” (priority 1995, dated 1998).
Like-named read-outs stand apart in the source and are kept apart here.

Columns and labels:
[1] = target: T1, GluG R encoded by clone 45-A (Rattus norvegicus, UniProt P23385); assay type: cell-based; conditions: normalized to 100 μM L-glutamate
T1 construct: expressed in transfected cells; host or cells: Xenopus oocytes injected with in vitro transcribed RNA of clone 45-A (cDNA in pVEGT')

[2] = system: glutamate G protein coupled receptor; test: Voltage-clamp assay of injected oocytes, inhibition of glutamic acid-evoked current by putative antagonist; assay type: cell-based, rat; conditions: antagonist 1 mM
Experimental: Voltage clamp assays were also carried out on injected oocytes to measure the inhibition by the putative glutamate G protein coupled receptor antagonist, 2-amino-3-phosphonopropionic acid (AP3).

GluG R = test: Voltage-clamp response to quisqualate of oocytes injected with RNA from a subfractionated rat cerebellum cDNA library pool; assay type: cell-based; conditions: RNA from subfractionated pool of 14,000 colonies; approximately 100 ng RNA per oocyte; estimated from digital panel meter
Experimental: Plasmid DNA from plates 25 to 32 were cesium chloride banded and transcribed into RNA as described above along with the positive parent pool Z99-25-32. Oocytes were injected with the RNA and voltage clamp assays, carried out as described above, identified pools Z104-25 and Z111-32 as being weakly positive, Z106-27 and Z109-30 as intermediately positive, and Z108-29 and Z110-31 as the most positive. The pool resulting in Z110-31 was chosen for further subdivision.
To confirm the result, plasmid DNA from clone #45 was prepared, transcribed and assayed in oocytes as described above. […] FIG. 2 illustrates the data taken from voltage-clamp recordings at several stages in the subfractionation of the cerebellum library. […] The peak current was truncated by the chart recorder, but the actual peak current (estimated from a digital panel meter) was approximately 1300 nA.

[3] = system: rat G protein coupled glutamate receptor; test: Competition of tritiated glutamic acid binding to membrane preparations of transfected BHK cells; conditions: plus and minus quisqualate, 30 minutes, room temperature
Experimental: Transfected cell lines expressing GluG R were identified by the binding of ^3 H-glutamate to membrane preparations from transfected cells. Cell lines expressing low to moderate levels of GluG R are used to set up functional screening assays.
Clones of BHK 570 and BHK TK^- ts13 cells expressing the rat G protein coupled glutamate receptor cDNA were plated in two or three 150 mm maxi-plates culture dishes and were grown to confluency. The cells from each plate were scraped in 5 ml of PBS (phosphate buffered saline, Sigma Chemical Co., St. Louis, Mo.), which was pre-chilled to 4° C. The cells were removed to a chilled centrifuged tube, and the plates were each rinsed with 5 ml of chilled PBS and pooled with the cells. The chilled tubes were spun at 1,000 rpm for two minutes, and the supernatant was discarded. The cells were frozen at either -70° C. or on dry ice. In some cases, the cells were left overnight at -70° C. […] The filters were dried in a microwave oven and counted in a […].
Protein determinations were carried out using a Coomassie Blue-based assay from Pierce Chemical Company (Rockford, Ill.) under conditions set forth by the manufacturer. One hundred microliters of undiluted cell homogenate or BSA standard was added to 2 ml of reagent and the optical density was measured at 595 nm. […]

[4] = 100 μM, saturating concentration

T1 sequence (P23385 33-1199): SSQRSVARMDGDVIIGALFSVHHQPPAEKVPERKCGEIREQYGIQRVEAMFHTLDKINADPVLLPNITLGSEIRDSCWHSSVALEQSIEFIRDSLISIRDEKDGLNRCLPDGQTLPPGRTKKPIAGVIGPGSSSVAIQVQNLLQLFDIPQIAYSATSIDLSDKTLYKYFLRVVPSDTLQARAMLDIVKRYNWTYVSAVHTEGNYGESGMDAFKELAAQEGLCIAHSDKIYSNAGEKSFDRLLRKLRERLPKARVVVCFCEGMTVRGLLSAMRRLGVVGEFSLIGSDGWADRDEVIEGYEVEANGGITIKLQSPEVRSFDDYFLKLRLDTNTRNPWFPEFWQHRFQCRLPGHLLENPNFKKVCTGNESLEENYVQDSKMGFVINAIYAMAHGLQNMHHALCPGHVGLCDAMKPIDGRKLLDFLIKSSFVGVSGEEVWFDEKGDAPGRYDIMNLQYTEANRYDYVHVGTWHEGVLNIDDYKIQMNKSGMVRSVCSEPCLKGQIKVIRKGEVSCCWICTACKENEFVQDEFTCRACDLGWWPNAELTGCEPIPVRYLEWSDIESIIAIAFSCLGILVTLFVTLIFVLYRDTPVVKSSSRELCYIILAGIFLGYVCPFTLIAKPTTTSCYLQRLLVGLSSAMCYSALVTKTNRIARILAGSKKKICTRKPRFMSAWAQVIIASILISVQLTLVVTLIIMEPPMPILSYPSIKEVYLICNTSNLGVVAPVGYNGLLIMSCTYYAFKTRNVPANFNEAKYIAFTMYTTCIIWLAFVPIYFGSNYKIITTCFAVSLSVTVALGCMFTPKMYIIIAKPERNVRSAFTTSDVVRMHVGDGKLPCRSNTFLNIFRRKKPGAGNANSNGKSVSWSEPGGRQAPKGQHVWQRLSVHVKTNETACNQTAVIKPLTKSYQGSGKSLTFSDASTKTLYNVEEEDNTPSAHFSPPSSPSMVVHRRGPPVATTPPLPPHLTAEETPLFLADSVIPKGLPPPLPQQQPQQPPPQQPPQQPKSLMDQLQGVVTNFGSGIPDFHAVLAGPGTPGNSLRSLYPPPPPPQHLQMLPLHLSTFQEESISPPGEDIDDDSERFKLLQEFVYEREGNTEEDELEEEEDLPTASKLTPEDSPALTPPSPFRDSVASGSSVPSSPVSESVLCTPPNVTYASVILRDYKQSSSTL

## CN[C@H](CC(=O)O)C(=O)O [NMDA, N-methyl-D-aspartic acid]
[1]; 100 μM NMDA+10 μM glycine
  response of oocytes to L-glutamic acid analog (effectiveness): ineffective

## NC(CP(=O)(O)O)C(=O)O (racemic) [DL-AP3, 2-amino-3-phosphonopropionic acid]
[2]
  current evoked by 10 μM glutamic acid, reduced to % of the control: 59.3±7.3 % of the control

## N[C@@H](Cn1oc(=O)[nH]c1=O)C(=O)O [Quisqualic acid, quisqualic acid]
GluG R
  peak current in response to quisqualate: approximately 1300 nA
[3]
  competitive binding to glutamate receptor expressed by transfected BHK cells: able to competitively bind the glutamate receptor

## NC(CCP(=O)(O)O)C(=O)O (centres unmarked) [APB, 2-amino-4-phosphonobytyric acid]
[1]; [4]
  response of oocytes to L-glutamic acid analog (effectiveness): ineffective

## C=C(C)[C@H]1CN[C@H](C(=O)O)[C@H]1CC(=O)O [kainic acid]
[1]; 1 mM, saturating concentration
  response of oocytes to L-glutamic acid analog (effectiveness): ineffective

## N[C@@H](CC(=O)O)C(=O)O [aspartic acid]
[1]; 1 mM, saturating concentration
  response of oocytes to L-glutamic acid analog (effectiveness): ineffective

## Cc1onc(O)c1CC(N)C(=O)O (stereo not drawn) [AMPA, α-amino-3-hydroxy-5-methyl-isoxazole-4-propionic acid]
[1]; [4]
  response of oocytes to L-glutamic acid analog (effectiveness): ineffective
